{"source": "patent US10011813B2", "about": "“Methane oxidation methods and compositions” (California Institute of Technology, priority 2015, dated 2018)", "key": {"[1]": {"tested_on": "methane seep sediment (ANME archaea)", "experiment": "AOM rate measurement via 13C-methane (newly formed DIC) in methane seep sediment incubations", "type": "cell-based, ANME-2a and ANME-2c", "text": "General description of methane oxidation measurements via ^13C-methane. Methane oxidation was quantified by determining the production of inorganic carbon (“CO2”). Accurate quantification of the concentration of inorganic carbon formed from methane oxidation is challenging due to 4 main reasons:\nA defined amount of added DIC in artificial, buffered seawater was used with a low calcium concentration to prevent carbonate precipitation (see medium composition). As ^13CH4 was the only ^13C-enriched carbon source added, the newly formed ^13C-DIC must be derived from methane. For low methane oxidation rates (less than ca. 5% relative to sulfate as the oxidant or electron acceptor), however, enzyme-catalyzed isotope exchange between methane and DIC, needs to be taken into account, because it contributes to ^13C enrichment of the DIC without net methane oxidation, resulting in an overestimation of net methane oxidation. […] Details of both methods, the ^13CH4 experiments and the standard addition are described herein.\nIncubation conditions for AOM rate measurement. Each incubation vial was set up with 1.0 cm^3 wet sediment (wet sediment=volume of sediment after allowing the sediment slurry settle for 48 h) in total slurry volume of […] as follows: Sterile serum vials were closed with butyl rubber stoppers (volume=12.9 ml after closing) and flushed with methane. 1.0 mL ^13CH4 (99% ^13C, Cambridge Isotope Laboratories, containing 0.05 vol % ^13CO2 as an impurity) was introduced anaerobically. 2.0 mL of artificial, anaerobic seawater containing 2.5× the target concentration of the corresponding electron acceptor was injected into the serum vial cooled on ice. For AQDS and 1,5-AQDS, this was a suspension corresponding to 25 mM (see TABLE 3).\nThe 1 L pyrex bottle with the sediment in the sulfate-free medium (1 part wet sediment in 3 parts of slurry volume) was vigorously shaken each time and 3.0 mL of slurry immediately removed and injected into the individual serum bottles. Each stoppered serum vial was supplemented with unlabeled methane (0.250 MPa overpressure: pressure gauge SSI Technologies, Inc., Media Gauge™) shaken and stored inverted at 4° C. (final headspace: 0.35 MPa methane, with ca. 4% ^13CH4). The exact fractional abundance of ^13C in the methane was quantified via ^1H-NMR spectroscopy for individual incubations.\nAOM rate measurements (quantification of newly formed DIC based on ^13CH4). For ^13C-DIC analysis, 0.25 mL of the medium above the settled sediment in the microcosm was sampled with a disposable needle and syringe at each time point (same intervals for all experiments) and centrifuged (16000 rcf, 5 min). The supernatant was transferred into 0.6 mL eppendorf tubes, flash frozen in N2 (l), and stored at −20° C. until measurement. 150 μL of the thawed supernatant was then added to He-flushed vials containing 100 μL H3PO4 (85%). The resulting CO2 was analyzed for the isotopic enrichment (^13F(tn)) on a GC-IR-MS GasBench II (Thermo Scientific). The amount of DIC newly formed (Δ[DIC](tn), see FIG. 6B) was calculated from the measured ^13F (fractional abundance of ^13C), neglecting isotope effects on AOM according to Equation (1): Δ[DIC](tn)=[DIC](t0)*(^13F(tn)−^13F(t0))/(^13F(CH4)−^13F(tn)) (EQ. 1)"}, "[2]": {"experiment": "Quantification of AQDS solubility in the incubation medium", "type": "physicochemical", "method": "Quantification of AQDS solubility in the incubation medium. Different regioisomers of AQDS (1,5-AQDS, 2,6-AQDS and 2,7-AQDS) were separately added to the modified artificial seawater described above, to a targeted final concentration of 25 mM. The suspensions were ultra-sonicated at room temperature to dissolve as much of the AQDS as possible. The tubes were kept at 4° C. or at 22.5° C. overnight. The tubes were centrifuged at 4° C. or 22.5° C. (16000 rcf, 30 min). The supernatant (300 μL) was mixed with 300 μL acetate (10.0 mM) as the internal standard and 100 μL deuterated water (99.9% D, Cambridge Isotope Laboratories) was added. The concentration of AQDS was obtained from integration of the ^1H-NMR spectra by comparison relative to the acetate standard."}, "ANME-SRB consortia": {"tested_on": "ANME-SRB consortia", "experiment": "FISH-nanoSIMS 15N incorporation (anabolic activity) of ANME-SRB consortia", "type": "cell-based, ANME-2c archaea and Desulfobacteraceae", "method": "Incubations for FISH-nanoSIMS and RNA analysis. For AOM incubations with sulfate or AQDS that were used for nanoSIMS (FIG. 7 and FIG. 8A) and RNA analysis (FIG. 6), incubations experiments were set up following the AOM-rate measurements described above (initially containing 1.0 mM ammonium without ^15N label). Methane oxidation rates were tracked in these incubations via the ^13C label. After 11 days, ca. 3.5 mL of supernatant remained in the serum bottles to which 3.0 mL artificial seawater without ammonium containing either 25 mM AQDS, 28 mM sulfate, or no oxidant or electron acceptor was added. Next, 0.1 mL ^15NH4^+ (100 mM) was injected to yield about 2.0 mM ammonium with ca. 75% ^15N. Methane oxidation was monitored. After additional 8 days, the medium of the AQDS incubations was exchanged by 5.0 mL new medium containing 25 mM AQDS and 2.0 mM ^15NH4^+. Now the AQDS incubations contained ca. 95% ^15NH4^+ in the ammonium pool. The cultures were incubated for additional 10 days before harvest. Total incubation time with labeled ammonium: 18 days. Average labeling strength: ca. 75% for sulfate and no oxidant or electron acceptor control; ca. 86% for the AQDS incubations.\nFor the second independent set of experiments with iron citrate, humic acids and sulfate (FIG. 8B), the medium contained 1.0 mM ammonium with ca. 40% ^15N label throughout the incubation period. These experiments were carried out from identical incubations that were for the AOM rate measurements (highlighted in Table 4). In regards to Table 4, the percentage AOM rates are reported relative to sulfate-coupled AOM (1.50 μmol cm^−3 day^−1). Top: Summary of compounds described in FIG. 1B; Bottom: Oxidants or electron acceptors resulting in an AOM rate less than 0.10 μmol […] day^−1 (<7% rel. to sulfate as oxidant or electron acceptor).\nSampling for FISH-nanoSIMS and RNA. After an 18-day incubation in the presence of ^15NH4^+, each incubation was shaken to suspend the sediment and 1.0 mL sediment slurry was sampled using a disposable sterile needle and syringe (ca. 0.3 mL wet sediment). […]\nSample preparation for aggregate embedding, sectioning, FISH, and nanoSIMS. […] Sections of ca. 1 μm thickness were cut and stretched on a water droplet on a polylysine coated slide with teflon wells (Tekdon Inc) and analyzed by fluorescence in situ hybridization (FISH). […]\nFISH conditions and probes. The FISH hybridization on thin sections of resin embedded microbial aggregates followed the recently optimized protocol described in S. E. McGlynn et al. The phylogenetic identity of microorganisms in the thin sections were determined using conventional FISH using oligonucleotide probes fluorescently labeled on both the 5′ and 3′ ends (dual labeled) as outlined herein. […]"}, "[3]": {"tested_on": "methane seep sediment (ANME archaea)", "experiment": "Quantification of sulfide (methylene blue method) in AOM incubations", "type": "cell-based, ANME-2a and ANME-2c", "conditions": "Sulfate 28 mM, after 21-day incubation", "method": "Quantification of sulfide. Supernatant was removed via syringe and centrifuged in 0.6 mL Eppendorf tubes (16000 rcf, 30 s). 20 μL of the clear supernatant was removed and added to 400 μL Zn(OAc)2 (500 mM) to preserve the sulfide. Analysis was carried out in triplicate via the methylene blue method described in J. D. Clin (Waters. Limnol. Oceanogr. 14:454 (1969)), using standards of 0.1, 0.25, 0.5, 1, 2, 5, 10 and 25 mM sulfide added to Zn(OAc)2 (500 mM) in the same ratios as for the samples. Quantification was carried out in a plate reader (TECAN Sunrise™) by monitoring the absorbance at 670 nm."}}, "note": "Several values for one entry are separate records, joined by “and”; a condition that tells them apart may be missing. Equal entries are not always repeated. Marks after values point to notes of the source that are not given here."}
{"compound": "1-Hydroxynaphthoquinone", "values": [{"measurement": "Rate relative to AOM with sulfate", "setting": "[1]; 10 mM, 1 mM, no MoO4^2−", "result": "≤1.5 ^† %"}]}
{"compound": "O=C1c2cccc(S(=O)(=O)O)c2C(=O)c2cccc(S(=O)(=O)O)c21", "note": "[1,5-AQDS, 9,10-anthraquinone-1,5-disulfonate]", "values": [{"measurement": "Rate relative to AOM with sulfate", "setting": "[1]; 10 mM, no MoO4^2−", "result": 38, "unit": "%"}, {"measurement": "Solubility in the incubation medium", "setting": "[2]; 4° C.", "result": 2.5, "unit": "mM"}]}
{"compound": "O=C1c2ccc(S(=O)(=O)O)cc2C(=O)c2cc(S(=O)(=O)O)ccc21", "note": "[2,7-AQDS, 9,10-anthraquinone-2,7-disulfonate]", "values": [{"measurement": "Rate relative to AOM with sulfate", "setting": "[1]; 10 mM, no MoO4^2−", "result": 97, "unit": "%"}, {"measurement": "Solubility in the incubation medium", "setting": "[2]; 4° C.", "result": ">25", "unit": "mM"}, {"measurement": "Solubility in the incubation medium", "setting": "[2]; 22.5° C.", "result": ">25", "unit": "mM"}]}
{"compound": "O=C([O-])CN(CCN(CC(=O)[O-])CC(=O)[O-])CC(=O)[O-].[Fe+3]", "note": "[Fe(III)-EDTA]", "values": [{"measurement": "Rate relative to AOM with sulfate", "setting": "[1]; 1.6 mM, no MoO4^2−", "result": 8, "unit": "%"}, {"measurement": "Rate relative to AOM with sulfate", "setting": "[1]; 10 mM, no MoO4^2−", "result": "≤1.5 ^† %"}]}
{"compound": "O=C([O-])CN(CC(=O)[O-])CC(=O)[O-].[Fe+3]", "note": "[Fe(III)-NTA]", "values": [{"measurement": "Rate relative to AOM with sulfate", "setting": "[1]; 1 mM, no MoO4^2−", "result": 2.5, "unit": "%"}, {"measurement": "Rate relative to AOM with sulfate", "setting": "[1]; 10 mM, no MoO4^2−", "result": "≤1.5 ^† %"}]}
{"compound": "O=C([O-])CC(O)(CC(=O)[O-])C(=O)[O-].[Fe+3]", "note": "[Fe(III)-citrate]", "values": [{"measurement": "Rate relative to AOM with sulfate", "setting": "[1]; 2 mM, with 25 mM MoO4^2−", "result": 7, "unit": "%"}, {"measurement": "Rate relative to AOM with sulfate", "setting": "[1]; 5 mM, with 25 mM MoO4^2−", "result": 37, "unit": "%"}, {"measurement": "Rate relative to AOM with sulfate", "setting": "[1]; 10 mM, no MoO4^2−", "result": 53, "unit": "%"}, {"measurement": "Rate relative to AOM with sulfate", "setting": "[1]; 10 mM, with 25 mM MoO4^2−", "result": 46, "unit": "%"}, {"measurement": "Rate relative to AOM with sulfate", "setting": "[1]; 25 mM, with 25 mM MoO4^2−", "result": 2.5, "unit": "%"}, {"measurement": "AOM consortia anabolically active (>10% archaeal activity relative to sulfate treatments, or >0.8 at % 15N)", "setting": "ANME-SRB consortia; second set of experiments, ca. 40% 15N", "result": "14 out of 31"}]}
{"compound": "O=C1C(=C2Nc3c(cc(S(=O)(=O)O)cc3S(=O)(=O)O)C2=O)Nc2c1cc(S(=O)(=O)O)cc2S(=O)(=O)O", "note": "[Indigo tetrasulfonate]", "values": [{"measurement": "Rate relative to AOM with sulfate", "setting": "[1]; 10 mM, 1 mM, no MoO4^2−", "result": "≤1.5 ^† %"}]}
{"compound": "CN(C)c1ccc2nc3ccc(=[N+](C)C)cc-3sc2c1", "note": "[Methylene blue]", "values": [{"measurement": "Rate relative to AOM with sulfate", "setting": "[1]; 1 mM, no MoO4^2−", "result": "≤1.5 ^† %"}]}
{"compound": "COS(=O)(=O)[O-].C[n+]1c2ccccc2nc2ccccc21", "note": "[Phenazine methosulfate]", "values": [{"measurement": "Rate relative to AOM with sulfate", "setting": "[1]; 1 mM, no MoO4^2−", "result": "≤1.5 ^† %"}]}
{"compound": "Nc1ccc2nc3ccc(N)cc3[n+](-c3ccccc3)c2c1", "note": "[Phenosafranine]", "values": [{"measurement": "Rate relative to AOM with sulfate", "setting": "[1]; 10 mM, 1.6 mM, no MoO4^2−", "result": "≤1.5 ^† %"}]}
{"compound": "O=c1ccc2[n+]([O-])c3ccc(O)cc3oc-2c1", "note": "[Resazurin]", "values": [{"measurement": "Rate relative to AOM with sulfate", "setting": "[1]; 10 mM, no MoO4^2−", "result": "≤1.5 ^† %"}]}
{"compound": "Cc1cc2nc3cc(C)c(N)cc3[n+](-c3ccccc3)c2cc1N.[Cl-]", "note": "[Safranine T]", "values": [{"measurement": "Rate relative to AOM with sulfate", "setting": "[1]; 10 mM, 1.6 mM, no MoO4^2−", "result": "≤1.5 ^† %"}]}
{"compound": "O=S(=O)(O)O", "note": "[Sulfate]", "values": [{"measurement": "Rate relative to AOM with sulfate", "setting": "[1]; 28 mM, no MoO4^2−, 100% = 1.50 μmol cm^−3 day^−1", "result": 100, "unit": "%"}, {"measurement": "Rate relative to AOM with sulfate", "setting": "[1]; 28 mM, with 25 mM MoO4^2−", "result": 20, "unit": "%"}, {"measurement": "DIC formed", "setting": "[1]; Sulfate 28 mM, after 21-day incubation", "result": "6.44 mM and 7.77 mM and 7.51 mM and 7.29 mM"}, {"measurement": "sulfate-coupled AOM rate", "setting": "[1]; reference rate (100%) of Table 4", "result": 1.50, "unit": "μmol cm^−3 day^−1"}, {"measurement": "AOM rate", "setting": "[1]; sediment characterization", "result": "1.5 μmol methane (cm^3 wet sediment)^−1 d^−1"}, {"measurement": "sulfide (sum of HS^− and H2S), final concentration", "setting": "[3]", "result": "5.9 mM and 6.5 mM and 7.0 mM and 6.1 mM"}, {"measurement": "doubling time of ANME cells based on average 15N-incorporation", "setting": "ANME-SRB consortia; 18 days with 15NH4+", "result": 2.9, "unit": "months"}]}
{"compound": "[Na+].[Na+].[O]=[Mo](=[O])([O-])[O-]", "note": "[molybdate, sodium molybdate]", "values": [{"measurement": "effect on methane oxidation in sulfate-free incubations containing AQDS", "setting": "[1]; 25 mM molybdate, AQDS 10 mM", "result": "no inhibitory response"}, {"measurement": "effect on rates of sulfate-coupled AOM relative to controls", "setting": "[1]; 25 mM molybdate, sulfate 28 mM", "result": "decreased by approximately fivefold"}]}
